Reference: PubChem BioAssay AID1996
In brackets after ≈: the same amount, converted by molar mass.

Conditions: buffer; pH 7.4; 200.0 µM

Cc1cccc(C(=O)NCCCNC(=O)c2cccnc2)c1 and O=C(Nc1ccc(Cl)c(Cl)c1)c1cccnc1 cannot be ordered by solubility kinetic: 41.6 µg/mL (≈ 140 µM) for the first, greater than 40.1 µg/mL for the second.

First: CC(C)(C)c1ccc(SCCc2ccncc2)cc1
Second: Cc1cccc(NCc2ccc(Br)cc2)n1
The solubility kinetic of the first is 1.8-fold lower: 6.5 µg/mL (≈ 23.9 µM) for the first, 12 µg/mL (≈ 43.3 µM) for the second.

First: Cc1cccc(NS(=O)(=O)c2ccc3c(c2)CCC(=O)N3)c1
Second: Cc1cccc(NC(=O)CCCCC(=O)Nc2cccc(C)c2)c1
The solubility kinetic of the first is higher: greater than 47.5 µg/mL for the first, less than 0.3 µg/mL for the second.

First: COCC(=O)Nc1ccc(Br)cc1C
Second: Cc1ccc(OC(=O)c2cncc(Br)c2)c(C)c1
The solubility kinetic of the first is 5.3-fold higher: 35.8 µg/mL (≈ 139 µM) for the first, 6.8 µg/mL (≈ 22.2 µM) for the second.

Compared with Cc1ccc(C)c(-c2csc(Nc3ncccn3)n2)c1, Cc1ccc(Nc2c([N+](=O)[O-])ccc3nonc23)c(C)c1 is lower in solubility kinetic: 0.2 µg/mL (≈ 0.708 µM) for the first, less than 0.2 µg/mL for the second.

Going from CCOC(=O)N1CCN(c2cc(NCCO)c([N+](=O)[O-])c3nonc23)CC1 to CCOc1ccc(Nc2nc(N)c([N+](=O)[O-])c(N3CCN(C)CC3)n2)cc1, the solubility kinetic rises from 5.9 µg/mL (≈ 15.5 µM) to 51.9 µg/mL (≈ 139 µM) (8.8-fold).

First: O=C(COc1ccc(Br)cc1)OCC(=O)N1CCOCC1
Second: CC(C)CC(C(=O)N1CCOCC1)N1Cc2ccccc2C1=O (stereo not given)
The solubility kinetic of the first is higher: greater than 53.7 µg/mL for the first, 47.3 µg/mL (≈ 149 µM) for the second.

Compared with Cc1ccc(NC(=O)CN2CCc3ccccc3C2)cc1F, Cc1ccc(NC(=O)CCOc2ccccc2)cc1 is 2-fold lower in solubility kinetic: 23.1 µg/mL (≈ 77.4 µM) for the first, 11.7 µg/mL (≈ 45.8 µM) for the second.

Cl.NCCOc1ccccc1OCCN and CCOc1ccccc1C(=O)OCC(=O)NCC1CCCCC1 cannot be ordered by solubility kinetic: greater than 40.4 µg/mL for the first, greater than 47.9 µg/mL for the second.

Going from CCCn1c(S(=O)(=O)O)nc2ccccc21 to O=c1c2ccccc2ncn1Cc1ccccc1, the solubility kinetic falls from greater than 36 µg/mL to 31.5 µg/mL (≈ 133 µM).

O=C1NC2=C(C(=O)CCC2)C(c2ccc(OC(F)F)cc2)N1 (stereo not given) and O=C(COC(=O)c1ccc(O)cc1)Nc1ccc(OC(F)F)cc1 are within 1.5-fold of each other in solubility kinetic: 41.8 µg/mL (≈ 136 µM) for the first, 29.9 µg/mL (≈ 88.7 µM) for the second.

Compared with S=C(NCCCc1ccccc1)Nc1ccc(Br)cc1, CCC(Cc1ccccc1)NC(=O)CCc1ccccc1 (stereo not given) is higher in solubility kinetic: 4.5 µg/mL (≈ 12.9 µM) for the first, greater than 42.2 µg/mL for the second.

COc1ccc(C(=O)CCC(C)(C)[N+](=O)[O-])cc1OC and COc1ccc(CCN=C(N)NS(=O)(=O)c2ccc(C)c(C)c2)cc1OC cannot be ordered by solubility kinetic: greater than 42.2 µg/mL for the first, greater than 58.7 µg/mL for the second.

Going from CCOC(=O)c1sc(NC(=O)C2CCCCC2)nc1C to Cc1nc(C)c(C(=O)OCC(=O)NCc2ccccc2Cl)s1, the solubility kinetic rises from 5 µg/mL (≈ 16.9 µM) to 26.4 µg/mL (≈ 77.9 µM) (5.3-fold).

Compared with O=C(N[C@@H](Cc1ccccc1)C(=O)N1CCN(S(=O)(=O)c2ccccc2F)CC1)c1ccco1, O=C(NCC(=O)N1CCN(c2ccccc2)CC1)c1ccccc1 is higher in solubility kinetic: 23.7 µg/mL (≈ 48.8 µM) for the first, greater than 48.5 µg/mL for the second.

Going from Cc1ccc(C(=O)NCC(=O)Nc2cc(C)ccn2)cc1 to COc1ccc(C(=O)COC(=O)CNC(=O)c2ccc(OC)cc2)cc1, the solubility kinetic falls from greater than 42.5 µg/mL to 17.3 µg/mL (≈ 48.4 µM).

Nn1c(SCC(=O)NC2CCS(=O)(=O)C2)nnc1-c1ccco1 (stereo not given) and CC(C)C(=O)Nc1nnc(SCC(=O)NCC2CCCO2)s1 (stereo not given) cannot be ordered by solubility kinetic: greater than 53.6 µg/mL for the first, greater than 51.7 µg/mL for the second.

Compared with CCCOc1ccc(Cc2c(O)nc(N)[nH]c2=O)cc1C, COc1ccc(S(N)(=O)=O)cc1C(=O)OCC(=O)Nc1ncc(Cl)c(C)c1Cl is 1.5-fold higher in solubility kinetic: 15.6 µg/mL (≈ 53.9 µM) for the first, 24 µg/mL (≈ 53.5 µM) for the second.

CC(C)(C)S(=O)(=O)c1cnc(N2CCOCC2)nc1N and Cc1nnc(NN2CCOCC2)[nH]c1=O cannot be ordered by solubility kinetic: 32.8 µg/mL (≈ 109 µM) for the first, greater than 31.7 µg/mL for the second.

Compared with CCc1noc(C)c1C(=O)OCC(=O)c1ccc(NC(C)=O)cc1F, CCOC(=O)C1=C(COC(=O)/C=C/c2cccc(F)c2)NC(=O)NC1C (stereo not given) is 2-fold lower in solubility kinetic: 9.1 µg/mL (≈ 26.1 µM) for the first, 4.6 µg/mL (≈ 12.7 µM) for the second.

First: COC(=O)CCC(=O)Nc1cccc([N+](=O)[O-])c1
Second: CCNC(=O)C(=O)Nc1ccc(OC)c(Cl)c1
The solubility kinetic of the first is higher: greater than 37.8 µg/mL for the first, 2.4 µg/mL (≈ 9.35 µM) for the second.

First: CC1CN(C(=O)c2cc3cc(F)ccc3[nH]2)CC(C)O1 (stereo not given)
Second: CC1CN(C(=O)COC(=O)c2cccc(S(=O)(=O)N3CCc4ccccc43)c2)CC(C)O1 (stereo not given)
The solubility kinetic of the first is 2.1-fold higher: 32.2 µg/mL (≈ 117 µM) for the first, 15.3 µg/mL (≈ 33.4 µM) for the second.

Going from COc1ccc(/C=N/S(=O)(=O)c2ccc(C)cc2)cc1 to COc1ccc(CCOC(=O)c2ccc(NC(=O)CC#N)cc2)cc1, the solubility kinetic falls from 41 µg/mL (≈ 142 µM) to 4.1 µg/mL (≈ 12.1 µM) (10-fold).

Going from Cc1cccc(C)c1OP(N)(=O)Oc1c(C)cccc1C to Cc1cccc(C)c1NC(=S)N(CCN(C)C)Cc1cccs1, the solubility kinetic rises from 10.8 µg/mL (≈ 35.4 µM) to 45.8 µg/mL (≈ 132 µM) (4.2-fold).

C/C(Cc1ccccc1)=N\NC(=O)CNC(=O)c1ccccc1O and O=C(NCc1ccc(F)cc1)c1cccnc1C(=O)O cannot be ordered by solubility kinetic: greater than 48.8 µg/mL for the first, greater than 41.1 µg/mL for the second.

COc1ccc(C(=O)OCC(=O)N2CCCC2=O)c(OC)c1 and COC(=O)C(NC(=O)CN1C(=O)c2ccccc2C1=O)c1ccc(O)c(OC)c1 (stereo not given) are within 1.5-fold of each other in solubility kinetic: 40.3 µg/mL (≈ 131 µM) for the first, 55.8 µg/mL (≈ 140 µM) for the second.

Going from CCOc1ccc(NC(=O)c2cc3ccccc3cc2OC)cc1 to COc1ccc(OC)c(NC(=O)c2cccc(NC(=O)c3ccccc3)c2)c1, the solubility kinetic rises from less than 0.7 µg/mL to 9.8 µg/mL (≈ 26 µM).

Cc1nn(C)c2ncc(C(N)=O)c(Oc3cccnc3)c12 and Cc1c(NCc2cccnc2)cccc1C(=O)O cannot be ordered by solubility kinetic: greater than 42.5 µg/mL for the first, greater than 36.3 µg/mL for the second.

O=C(Nc1ccc(F)cc1F)N1CCCCCC1 and O=C(CS(=O)(=O)c1ccccc1)N1CCCCC1 cannot be ordered by solubility kinetic: greater than 38.1 µg/mL for the first, greater than 40.1 µg/mL for the second.

First: O=C(NCCc1ccccc1)C1CC(=O)N(C2CCCCC2)C1 (stereo not given)
Second: O=C1C=C(N2CCCCCC2)C(=O)N1c1ccc(Cl)cc1
The solubility kinetic of the first is higher: greater than 47.2 µg/mL for the first, 8.9 µg/mL (≈ 29.2 µM) for the second.

Compared with Fc1ccc(Nc2ccnc(C(F)(F)F)c2)cc1, Cc1ccccc1C(=O)Nc1cccc(NC(=O)c2ccc(F)cc2)c1 is 14-fold lower in solubility kinetic: 25.7 µg/mL (≈ 100 µM) for the first, 1.8 µg/mL (≈ 5.17 µM) for the second.

Compared with CC1CCCC(C)N1S(=O)(=O)c1ccc(Cl)cc1 (stereo not given), Cc1ccc(C)c(NC(=O)C2CCN(C(=O)c3cccs3)CC2)c1 is higher in solubility kinetic: 2.7 µg/mL (≈ 9.38 µM) for the first, greater than 51.4 µg/mL for the second.

Going from C=CCn1c(SCCCC)nc([O-])cc1=O.[NH4+] to CCCN1C(=O)N(c2cccc(C)c2)C(C)(O)CC1(C)C (stereo not given), the solubility kinetic rises from 22.4 µg/mL to greater than 43.6 µg/mL.

First: CCc1ccc(NC(=S)Nc2ccc3[nH]c(=O)[nH]c3c2)cc1
Second: CCc1ccc(NC(=O)C(C)OC(=O)Cc2cc(OC)c(OC)c(OC)c2)cc1 (stereo not given)
The solubility kinetic of the first is lower: 13.5 µg/mL (≈ 43.2 µM) for the first, greater than 60.2 µg/mL for the second.

COc1ccc(CC(=O)Nc2cc(S(=O)(=O)N3CCOCC3)ccc2N2CCCC2)cc1OC and C=CCN(Cc1ccc(OC)c(OC)c1)C(=O)N1CCOCC1 cannot be ordered by solubility kinetic: greater than 73.4 µg/mL for the first, greater than 48.1 µg/mL for the second.

First: COc1ccc(OC)c(NC(=O)CN2c3cccc4cccc(c34)S2(=O)=O)c1
Second: CCn1c(C)c(C(=O)O)c2cc(OC)c3ccccc3c21
The solubility kinetic of the first is 7.6-fold lower: 2.2 µg/mL (≈ 5.52 µM) for the first, 16.8 µg/mL (≈ 59.3 µM) for the second.

Cc1nc([N+](=O)[O-])cn1CC(=O)c1ccc(OC(F)(F)F)cc1 and O=C(COc1ccc([N+](=O)[O-])cc1Cl)N1CCc2ccccc21 are within 1.5-fold of each other in solubility kinetic: 3.3 µg/mL (≈ 10 µM) for the first, 2.4 µg/mL (≈ 7.21 µM) for the second.

First: Cc1c([N+](=O)[O-])c(C(=O)NC2CCCC2)nn1C
Second: O=[N+]([O-])c1cc(-n2cccc2)ccc1N1CCOCC1
The solubility kinetic of the first is higher: greater than 37.8 µg/mL for the first, 31.6 µg/mL (≈ 116 µM) for the second.

First: O=C(NCc1ccncc1)NC12CC3CC(CC(C3)C1)C2
Second: COC(CNC(=O)c1cccnc1)OC
The solubility kinetic of the first is 1.6-fold higher: 41.3 µg/mL (≈ 145 µM) for the first, 26.4 µg/mL (≈ 126 µM) for the second.

Cc1c(Cl)cccc1NC(=O)c1ccco1 and Cc1ccc(Cl)c(NC(=O)COC(=O)c2cc[n+]([O-])cc2)c1Cl cannot be ordered by solubility kinetic: greater than 35.4 µg/mL for the first, greater than 53.3 µg/mL for the second.

CNC(=O)Nc1cc(NC(=O)NC)cc(C(F)(F)F)c1 and Br.CC(Cc1ccc(O)cc1)NCC(O)c1cc(O)cc(O)c1 (stereo not given) cannot be ordered by solubility kinetic: greater than 43.5 µg/mL for the first, greater than 57.6 µg/mL for the second.

Cn1c(C(O)c2ccc(Br)cc2)nc(Cl)c1Cl (stereo not given) and O=Cc1cn(CCOc2ccccc2)c2ccccc12 are within 1.5-fold of each other in solubility kinetic: 13.9 µg/mL (≈ 41.4 µM) for the first, 12.9 µg/mL (≈ 48.6 µM) for the second.

O=C(C1=C(O)C(=O)N(Cc2cccnc2)C1c1cccc(Oc2ccccc2)c1)c1ccco1 (stereo not given) showed a solubility kinetic greater than 67.9 µg/mL.
